According to US20080132539A1, “Hydroxamic Acid Derivative And Age Generation Inhibitor Containing The Derivative” (priority 2003, published 2008):

Tested on: Maillard reaction (lysozyme / fructose, dimer formation)
Assay: Maillard reaction-inhibiting effects (lysozyme dimer formation with fructose, SDS-PAGE densitometry)
Type: biochemical
Details: 10 mg/mL lysozyme, 200 mM fructose, pH 7.4, 37° C., 4 days, dimer formation inhibition rate
Protocol: This Example examined Maillard reaction-inhibiting effects using, as test compounds, the compounds produced in the above-described Examples and the commercially available substances arginine hydroxamate (Compound No. 111), tyrosine hydroxamate (Compound No. 112), and tryptophan hydroxamate (Compound No. 113). More specifically, 10 mg/mL lysozyme, 200 mM fructose, and each of the above-described test compounds dissolved in a 0.4 mM sodium phosphate buffer (pH 7.4) so as to provide a concentrations of 0.1, 0.3, 1, or 3 mM were incubated at 37° C. for 4 days. After the incubation, the samples were subjected to SDS-PAGE, stained with Coomassie Brilliant Blue R-250, and quantitated for the formed dimmers using a densitometer. The Maillard reaction-inhibiting activity was defined as the dimmer formation inhibition rate of a test compound calculated on the basis that the amount of dimmer is 100% in the absence of the test compound, using, as blank, the amount of dimer in the absence of fructose and the test compound.

[1] = test compound concentration 0.1 mM
[2] = test compound concentration 0.3 mM
[3] = test compound concentration 1 mM
[4] = test compound concentration 3 mM

SMILES	Maillard reaction-inhibiting activity (%) [1] [%]	Maillard reaction-inhibiting activity (%) [2] [%]	Maillard reaction-inhibiting activity (%) [3] [%]	Maillard reaction-inhibiting activity (%) [4] [%]
CC(C)(C)c1ccc(Cn2cc(CC(N)C(=O)NO)c3ccccc32)cc1 (racemic) [Compound No. 106, (RS)-2-amino-3-[1-(4-t-butylbenzyl)-1H-indol-3-yl]-N-hydroxypropionamide]	94	95	97	95
NC(Cc1cn(Cc2ccc(F)c(F)c2)c2ccccc12)C(=O)NO (racemic) [Compound No. 108, (RS)-2-amino-3-[1-(3,4-difluorobenzyl)-1H-indol-3-yl]-N-hydroxypropionamide]	102	103	104	104
CC(C)(C)c1ccc(NC(=O)CC[C@H](N)C(=O)NO)cc1 [Compound No. 2, (S)-2-amino-4-(4-t-butylphenylaminocarbonyl)-N-hydroxybutyramide]	86	100	100	100
N[C@@H](CCC(=O)NC1CCCCC1)C(=O)NO [Compound No. 5, (S)-2-amino-4-(cyclohexylaminocarbonyl)-N-hydroxybutyramide]	−3	5	35	97
N[C@@H](CCC(=O)NCC(c1ccccc1)c1ccccc1)C(=O)NO [Compound No. 6, (S)-2-amino-4-(2,2-diphenylethylaminocarbonyl)-N-hydroxybutyramide]	49	97	103	100
N[C@@H](CCC(=O)NCc1ccccn1)C(=O)NO [Compound No. 7, (S)-2-amino-4-(pyridin-2-ylmethylaminocarbonyl)-N-hydroxybutyramide]	−3	−4	13	72
N[C@@H](CCCNC(=O)c1ccc([N+](=O)[O-])cc1)C(=O)NO [Compound No. 15, (S)-2-amino-5-(4-nitrobenzoylamino)pentanoic acid hydroxyamide]	−12	−2	43	98
N[C@@H](CCCNC(=O)Cc1ccc([N+](=O)[O-])cc1)C(=O)NO [Compound No. 16, (S)-2-amino-5-(4-nitrophenylacetylamino)pentanoic acid hydroxyamide]	−7	11	71	98
N[C@@H](CCCNC(=O)CC1CCCCC1)C(=O)NO [Compound No. 19, (S)-2-amino-5-(cyclohexylacetylamino)pentanoic acid hydroxyamide]	10	54	95	101
CCCN(CCC)CCC[C@H](N)C(=O)NO [Compound No. 25, (S)-2-amino-5-dipropylaminopentanoic acid hydroxyamide]	7	6	40	100
CCCCCN(CCCCC)CCC[C@H](N)C(=O)NO [Compound No. 26, (S)-2-amino-5-dipentylaminopentanoic acid hydroxyamide]	11	17	68	100
N[C@@H](CCCNC1CCCCC1)C(=O)NO [Compound No. 27, (S)-2-amino-5-cyclohexylaminopentanoic acid hydroxyamide]	1	7	32	100
Cc1ccc(CN(CCC[C@H](N)C(=O)NO)Cc2ccc(C)cc2)cc1 [Compound No. 28, (S)-2-amino-5-[bis-(4-methyl-benzyl)amino]pentanoic acid hydroxyamide]	100	100	100	100
Cc1ccc(C(=O)Nc2ccc(C[C@H](N)C(=O)NO)cc2)cc1 [Compound No. 30, (S)-2-amino-3-[4-(4-methylbenzoyl)amino-phenyl]-N-hydroxypropionamide]	56	74	80	92
CCCCC(=O)Nc1ccc(C[C@H](N)C(=O)NO)cc1 [Compound No. 31, (S)-2-amino-3-(4-valeroylaminophenyl)-N-hydroxypropionamide]	29	72	100	100
CC(C)(C)C(=O)Nc1ccc(C[C@H](N)C(=O)NO)cc1 [Compound No. 32, (S)-2-amino-3-(4-pivaloylaminophenyl)-N-hydroxypropionamide]	23	50	89	102
N[C@@H](Cc1ccc(NC(=O)Cc2ccc(F)cc2)cc1)C(=O)NO [Compound No. 33, (S)-2-amino-3-{4-[2-(4-fluorophenyl)acetylamino]-phenyl}-N-hydroxypropionamide]	57	93	98	102
Cc1ccc(S(=O)(=O)Nc2ccc(C[C@H](N)C(=O)NO)cc2)cc1 [Compound No. 34, (S)-2-amino-3-[4-(toluen-4-ylsulfonylamino)phenyl]-N-hydroxypropionamide]	37	98	102	102
COC(=O)Nc1ccc(C[C@H](N)C(=O)NO)cc1 [Compound No. 36, (S)-2-amino-3-(4-methoxycarbonylaminophenyl)-N-hydroxypropionamide]	15	33	69	102
CN(C)NC(=O)c1ccc(C[C@H](N)C(=O)NO)cc1 [Compound No. 37, (S)-2-amino-3-(4-dimethylaminocarbamoyl-phenyl)-N-hydroxypropionamide]	1	16	35	94
